Legend:
[1] = target: T1, Tyrosine-protein kinase ZAP-70 (Homo sapiens, UniProt P43403); assay: Inhibition of purified full-length human ZAP70 pre-incubated for 30 mins at room temperature before UlighTM-PolyGT peptide substrate addition and measured 1 hr after substrate addition by cell free kinase assay
T1 sequence (P43403 whole entry): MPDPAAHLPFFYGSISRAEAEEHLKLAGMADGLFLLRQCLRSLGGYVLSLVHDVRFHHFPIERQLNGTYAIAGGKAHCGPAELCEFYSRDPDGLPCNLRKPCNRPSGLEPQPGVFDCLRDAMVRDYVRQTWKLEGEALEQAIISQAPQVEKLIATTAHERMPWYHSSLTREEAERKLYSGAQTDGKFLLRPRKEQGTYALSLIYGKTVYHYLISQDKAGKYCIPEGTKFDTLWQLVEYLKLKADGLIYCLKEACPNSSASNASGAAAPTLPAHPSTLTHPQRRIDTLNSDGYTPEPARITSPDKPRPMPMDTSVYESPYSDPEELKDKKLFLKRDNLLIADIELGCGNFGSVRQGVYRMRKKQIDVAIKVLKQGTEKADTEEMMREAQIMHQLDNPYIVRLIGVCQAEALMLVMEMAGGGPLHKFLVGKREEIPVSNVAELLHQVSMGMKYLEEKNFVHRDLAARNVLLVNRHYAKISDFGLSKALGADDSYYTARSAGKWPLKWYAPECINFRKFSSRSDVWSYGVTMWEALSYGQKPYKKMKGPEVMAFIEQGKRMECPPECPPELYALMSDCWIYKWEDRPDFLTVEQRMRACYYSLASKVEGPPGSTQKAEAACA

[2] = target: T2, Tyrosine-protein kinase JAK3 (Homo sapiens, UniProt P52333); assay: Inhibition of JAK3 (unknown origin) pre-incubated for 30 mins at room temperature before substrate addition and measured 1 hr after substrate addition by cell free kinase assay
T2 sequence (P52333 whole entry): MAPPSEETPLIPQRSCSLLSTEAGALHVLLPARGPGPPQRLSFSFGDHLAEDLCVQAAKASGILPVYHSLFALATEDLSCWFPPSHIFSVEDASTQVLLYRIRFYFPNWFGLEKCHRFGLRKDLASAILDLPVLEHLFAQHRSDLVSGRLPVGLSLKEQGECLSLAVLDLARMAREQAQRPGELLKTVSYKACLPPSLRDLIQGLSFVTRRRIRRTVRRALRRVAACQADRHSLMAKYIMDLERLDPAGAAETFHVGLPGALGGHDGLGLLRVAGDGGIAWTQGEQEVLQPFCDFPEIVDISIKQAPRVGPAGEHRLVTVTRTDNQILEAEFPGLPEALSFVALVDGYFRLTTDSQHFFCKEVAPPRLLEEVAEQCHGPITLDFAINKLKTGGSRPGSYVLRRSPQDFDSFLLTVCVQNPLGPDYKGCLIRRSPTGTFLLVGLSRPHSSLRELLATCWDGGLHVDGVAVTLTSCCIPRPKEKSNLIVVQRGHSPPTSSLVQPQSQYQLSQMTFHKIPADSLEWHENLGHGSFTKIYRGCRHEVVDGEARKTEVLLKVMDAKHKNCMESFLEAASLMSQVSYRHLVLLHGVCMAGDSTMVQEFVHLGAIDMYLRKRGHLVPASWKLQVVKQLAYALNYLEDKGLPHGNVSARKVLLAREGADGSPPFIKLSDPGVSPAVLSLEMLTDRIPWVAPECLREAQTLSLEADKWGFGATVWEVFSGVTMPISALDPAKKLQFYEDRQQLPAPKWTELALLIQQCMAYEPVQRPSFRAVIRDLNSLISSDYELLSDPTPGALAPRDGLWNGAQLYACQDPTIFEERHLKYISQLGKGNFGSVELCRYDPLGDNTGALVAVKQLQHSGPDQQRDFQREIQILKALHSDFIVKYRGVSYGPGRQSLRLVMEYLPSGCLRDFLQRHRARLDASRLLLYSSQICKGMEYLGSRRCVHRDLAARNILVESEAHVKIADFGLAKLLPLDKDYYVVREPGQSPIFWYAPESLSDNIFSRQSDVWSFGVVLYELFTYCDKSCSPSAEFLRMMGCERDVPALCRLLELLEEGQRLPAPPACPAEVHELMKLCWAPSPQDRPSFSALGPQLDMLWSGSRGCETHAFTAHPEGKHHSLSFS

Aurora kinase B = Aurora kinase B (Homo sapiens, UniProt Q96GD4); assay: Inhibition of Aurora B kinase (unknown origin) pre-incubated for 30 mins at room temperature before substrate addition and measured 1 hr after substrate addition by cell free kinase assay
[3] = Stability in human liver microsomes; assay type: ADME; details: read-out: Stability
[4] = Apparent permeability from basolateral to apical side in human Caco2 cells; assay type: ADME, cell-based; details: Caco-2
[5] = Inhibition of CYP450 (unknown origin); assay type: ADME, Homo sapiens
Plasma = assay: Unbound fraction in human plasma; assay type: ADME, cell-free
Salmonella typhimurium [6] = assay: Genotoxicity in Salmonella typhimurium TA100 at 5000 µg/plate in presence of liver S9 fraction by Ames test; assay type: toxicity, organism-based; details: salmonella enterica subsp. enterica serovar typhimurium
Salmonella typhimurium [7] = assay: Genotoxicity in Salmonella typhimurium TA100 at 5000 µg/plate in absence of liver S9 fraction by Ames test; assay type: toxicity, organism-based; details: salmonella enterica subsp. enterica serovar typhimurium
Salmonella typhimurium [8] = assay: Genotoxicity in Salmonella typhimurium TA1535 at 5000 µg/plate in presence of liver S9 fraction by Ames test; assay type: toxicity, organism-based; details: salmonella enterica subsp. enterica serovar typhimurium
Salmonella typhimurium [9] = assay: Genotoxicity in Salmonella typhimurium TA1537 at 5000 µg/plate in presence of liver S9 fraction by Ames test; assay type: toxicity, organism-based; details: salmonella enterica subsp. enterica serovar typhimurium
Escherichia coli [10] = assay: Genotoxicity in Escherichia coli WP2 uvrA at 5000 µg/plate in presence of liver S9 fraction by Ames test; assay type: toxicity, organism-based
Escherichia coli [11] = assay: Genotoxicity in Escherichia coli WP2 uvrA at 5000 µg/plate in absence of liver S9 fraction by Ames test; assay type: toxicity, organism-based
Salmonella typhimurium [12] = assay: Mutagenicity in Salmonella typhimurium TA98 at 5000 µg/plate in presence of liver S9 fraction by Ames test; assay type: toxicity, organism-based; details: salmonella enterica subsp. enterica serovar typhimurium
Salmonella typhimurium [13] = assay: Mutagenicity in Salmonella typhimurium TA98 at 5000 µg/plate in absence of liver S9 fraction by Ames test; assay type: toxicity, organism-based; details: salmonella enterica subsp. enterica serovar typhimurium
Salmonella typhimurium [14] = assay: Mutagenicity in Salmonella typhimurium TA1535 at 5000 µg/plate in absence of liver S9 fraction by Ames test; assay type: toxicity, organism-based; details: salmonella enterica subsp. enterica serovar typhimurium
Salmonella typhimurium [15] = assay: Mutagenicity in Salmonella typhimurium TA1537 at 5000 µg/plate in presence of liver S9 fraction by Ames test; assay type: toxicity, organism-based; details: salmonella enterica subsp. enterica serovar typhimurium
Escherichia coli [16] = assay: Mutagenicity in Escherichia coli WP2 uvrA at 5000 µg/plate in presence of liver S9 fraction by Ames test; assay type: toxicity, organism-based
Salmonella typhimurium [17] = assay: Mutagenicity in Salmonella typhimurium TA1537 at 5000 µg/plate in absence of liver S9 fraction by Ames test; assay type: toxicity, organism-based; details: salmonella enterica subsp. enterica serovar typhimurium
Escherichia coli [18] = assay: Mutagenicity in Escherichia coli WP2 uvrA at 5000 µg/plate in absence of liver S9 fraction by Ames test; assay type: toxicity, organism-based
[19] = Clearance in Sprague-Dawley rat at 10 mg/kg, po; assay type: ADME, organism-based; details: in vivo
[20] = Terminal half life in Sprague-Dawley rat at 10 mg/kg, po; assay type: ADME, organism-based; details: in vivo, read-out: beta t1/2 (converted)
[21] = Oral bioavailability in Sprague-Dawley rat at 10 mg/kg; assay type: ADME, organism-based; details: in vivo
[22] = AUClast in Sprague-Dawley rat at 10 mg/kg; assay type: ADME, organism-based; design: dose 10 mg/kg, time 0 - last; details: in vivo

Sequence of Aurora kinase B (Q96GD4 whole entry): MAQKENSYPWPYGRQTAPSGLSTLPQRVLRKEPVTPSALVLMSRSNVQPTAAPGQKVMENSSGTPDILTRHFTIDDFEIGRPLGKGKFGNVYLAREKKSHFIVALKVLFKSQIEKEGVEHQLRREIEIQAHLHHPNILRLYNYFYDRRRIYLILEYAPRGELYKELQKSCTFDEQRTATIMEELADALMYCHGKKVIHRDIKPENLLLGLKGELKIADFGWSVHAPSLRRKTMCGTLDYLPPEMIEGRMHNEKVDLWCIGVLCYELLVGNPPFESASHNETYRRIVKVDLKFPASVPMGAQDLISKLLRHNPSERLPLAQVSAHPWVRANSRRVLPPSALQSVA

| Structure (SMILES) | IC50 [1] | IC50 [2] | IC50 (Aurora kinase B) | half-life [3] | Papp B→A [4] | IC50 [5] | Fu (Plasma) | Activity (Salmonella typhimurium [6]) | Activity (Salmonella typhimurium [7]) | Activity (Salmonella typhimurium [8]) | Activity (Salmonella typhimurium [9]) | Activity (Escherichia coli [10]) | Activity (Escherichia coli [11]) | Activity (Salmonella typhimurium [12]) | Activity (Salmonella typhimurium [13]) | Activity (Salmonella typhimurium [14]) | Activity (Salmonella typhimurium [15]) | Activity (Escherichia coli [16]) | Activity (Salmonella typhimurium [17]) | Activity (Escherichia coli [18]) | other results |
| --- | --- | --- | --- | --- | --- | --- | --- | --- | --- | --- | --- | --- | --- | --- | --- | --- | --- | --- | --- | --- | --- |
| Cc1nn(-c2ccnc(Nc3ccc4c(c3)c(C)c(C)n4C)n2)cc1CN1CC(O)C1 | 996 µM | 418 nM | 985 nM | > 60 min | 9.9 ×10⁻⁶ cm/s | > 10 µM | < 0.4% | Non-toxic | Non-toxic | Non-toxic | Non-toxic | Non-toxic | Non-toxic | Non-toxic | Non-toxic | Non-toxic | Non-toxic | Non-toxic | Non-toxic | Non-toxic | CL/F [19]: 21 mL/min/kg; half-life [20]: 204 min; bioavailability [21]: 61%; AUC(0-t) [22]: 4000 ng·h/mL |
| Cc1nn(-c2ccnc(Nc3ccc4c(c3)c(Cl)c(C)n4C)n2)cc1CN1CC(O)C1 | 53.8 µM | 78.1 nM | 1710 nM | > 60 min | 3.8 ×10⁻⁶ cm/s | > 10 µM | < 0.4% | Non-toxic | Non-toxic | Non-toxic | Non-toxic | Non-toxic | Non-toxic | Non-toxic | Non-toxic | Non-toxic | Non-toxic | Non-toxic | Non-toxic | Non-toxic | CL/F [19]: 26 mL/min/kg; half-life [20]: 216 min; bioavailability [21]: 28.4%; AUC(0-t) [22]: 3230 ng·h/mL |
